According to PubChem BioAssay (NCI):
Several values for one entry are separate records, joined by “and”; a condition that tells them apart may be missing. Identical values can stand only once.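 These data come from cells grown in 96-well plates and exposed to compound for 48 hours at five concentrations. GI50 = concentration required for 50% inhibition of growth. At the TGI there is no net growth.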

Assays:
Test in all cases: growth of human tumour cells (NCI), 48 h
T-47D breast = tested on: T-47D breast
MDA-N = tested on: MDA-N
DLD-1 colon = tested on: DLD-1 colon
DMS 114 small cell lung = tested on: DMS 114 small cell lung
M19-MEL melanoma = tested on: M19-MEL melanoma
SNB-78 CNS = tested on: SNB-78 CNS
XF 498 CNS = tested on: XF 498 CNS
KM20L2 colon = tested on: KM20L2 colon

| SMILES | GI50 (T-47D breast) | TGI (T-47D breast) | TGI (DLD-1 colon) | TGI (SNB-78 CNS) | also measured |
| --- | --- | --- | --- | --- | --- |
| CCCCCCCCCCN=C(c1ccc(N(C)C)cc1)c1ccc(N(C)C)cc1 | 0.6 µM | > 54 µM | – | – | – |
| Cc1ccc2c(c1)Sc1ccc(N=NN(C)C)cc1N2C | – | 85.9 µM | – | – | TGI (MDA-N): > 100 µM |
| C#CCC(N)(CO)C(=O)O (stereo not drawn) | – | – | > 100 µM | > 100 µM | TGI (DMS 114 small cell lung): > 100 µM; TGI (M19-MEL melanoma): > 100 µM; TGI (XF 498 CNS): > 100 µM |
| O=S1(=O)NCCCN1CCNc1nccc(-c2c(-c3cccc(O)c3)nc3sccn23)n1 | 23.3 µM | > 100 µM | – | – | – |
| O=S(=O)(CCOCc1ccc(-c2ccc3ncnc(Nc4ccc(OCc5cccc(F)c5)c(Cl)c4)c3c2)o1)c1ccccc1 | > 6.73 µM | > 25 µM | – | – | – |
| COC1OC(C)C(OCc2ccccc2)C(OS(=O)(=O)c2ccc(C)cc2)C1OS(=O)(=O)c1ccc(C)cc1 (stereo not drawn) | – | – | > 100 µM | > 100 µM | TGI (DMS 114 small cell lung): > 100 µM; TGI (KM20L2 colon): > 100 µM; TGI (M19-MEL melanoma): > 100 µM |
| CCOC(=O)C(=O)Nc1ccccc1C(F)(F)F | – | – | > 100 µM | > 100 µM | TGI (KM20L2 colon): > 100 µM; TGI (XF 498 CNS): > 100 µM |
| CC1CCCc2c1nn(C(=O)/C=C(\N)c1ccccc1)c2N (stereo not drawn) | 3.71 µM | 95.1 µM | – | – | – |
| CNC(SC)=C1C(=O)OC(C)(C)OC1=O | – | – | 54.2 µM | > 100 µM | TGI (DMS 114 small cell lung): > 100 µM; TGI (KM20L2 colon): > 100 µM; TGI (M19-MEL melanoma): > 100 µM; TGI (XF 498 CNS): > 100 µM |
| OC(CN1CC1)C(O)CN1CC1 (stereo not drawn) | > 50 µg/mL | > 50 µg/mL | – | – | GI50 (MDA-N): > 50 µg/mL; TGI (MDA-N): > 50 µg/mL |
| Cc1nnc(N/N=C(/C(=O)C(C#N)c2ccccc2)C(C#N)c2ccccc2)n1N (stereo not drawn) | – | – | 59.9 µM | > 90 µM | TGI (DMS 114 small cell lung): 13.4 µM; TGI (KM20L2 colon): > 100 µM; TGI (M19-MEL melanoma): 25.2 µM |
| Cn1c([N+](=O)[O-])cnc1/C=C1\Oc2cc(Cl)ccc2C1=O | 21.5 µM | > 100 µM | – | – | – |
| Cc1nc(Nc2n[nH]c3c2CN(C(=O)N[C@H](CN(C)C)c2ccccc2)C3(C)C)c2sccc2n1 | 0.0942 µM and 0.562 µM | 5.47 µM and 8.67 µM | – | – | – |
| NC(N)=NS(=O)(=O)c1ccc(NC(=O)c2cccc3c(Nc4ccc(S(N)(=O)=O)cc4)c4ccccc4nc23)cc1 | – | – | > 100 µM | > 100 µM | TGI (DMS 114 small cell lung): > 100 µM; TGI (KM20L2 colon): > 100 µM; TGI (M19-MEL melanoma): > 100 µM; TGI (XF 498 CNS): > 100 µM |
| O=c1c2c3c(sc2n2c(-c4cc(-c5ccccc5)nn4-c4ccccc4)nnc2n1Cc1ccccc1)CCCC3 | > 100 µM | > 100 µM | – | – | – |
| COc1ccc(-c2nnc(N3CCN(C(=O)CN4CCN(c5ccc(OC)cc5)CC4)CC3)nc2-c2ccc(OC)cc2)cc1 | 2.78 µM | 9.36 µM | – | – | – |
| O=C1c2cccnc2-c2nc(-c3ccncc3)cc3c2c1nc1ccccc13 | 44.9 µM | > 100 µM | – | – | GI50 (MDA-N): 19.9 µM; TGI (MDA-N): 35.9 µM |
| CCN(CC)CCNC(=O)c1c(C)[nH]c(/C=C2\C(=O)Nc3ccc(F)cc32)c1C | > 10 µM and > 20 µM and 15.9 µM | > 10 µM and > 20 µM and 35.3 µM | – | – | – |
| CCC(=C(c1ccc(OCCCN(C)C)cc1)c1ccc(OCCCN(C)C)cc1)c1ccc(Cl)cc1 | 0.86 µM | 3.16 µM | – | – | – |
| C=CCSc1nc2ccccc2c(=O)n1Cc1ccco1 | – | > 100 µM | – | – | TGI (MDA-N): > 100 µM |
| NC(=O)c1cccc(Nc2nccc(Nc3cccc(F)c3)n2)c1 | 4.38 µM | 16.5 µM | – | – | – |
| CCCCCCCCCCCCCCCCCCNC(=O)[C@H]1CSC(c2cccs2)N1 (stereo partly drawn) | 0.892 µM | 1.84 µM | – | – | – |
| OB1OCc2cc(/C=C/c3cccc(C(F)(F)F)c3)ccc21 | 0.425 µM | > 100 µM | – | – | – |
| Cc1cc2c(Br)cc(Br)c(O)c2nc1C(=O)c1ccccc1 | – | 74.6 µM | > 100 µM | > 100 µM | TGI (DMS 114 small cell lung): 97.7 µM; TGI (KM20L2 colon): 82.5 µM; TGI (M19-MEL melanoma): 32.2 µM; TGI (MDA-N): 96.3 µM |
| Cc1ccc2nc3c(Cl)c(C)c(=O)cc-3sc2c1 | – | – | > 100 µM | > 100 µM | GI50 (DLD-1 colon): 42.6 µM; GI50 (DMS 114 small cell lung): 25.4 µM; TGI (DMS 114 small cell lung): > 1 µM and 76 µM; GI50 (KM20L2 colon): > 100 µM; TGI (KM20L2 colon): > 100 µM; GI50 (M19-MEL melanoma): 46.4 µM; TGI (M19-MEL melanoma): > 100 µM; GI50 (SNB-78 CNS): 54 µM |
| Cc1cc(Nc2nc(SCc3ccc(C(=O)Nc4ccc(F)cc4N)cc3)nn3cccc23)n[nH]1 | 1.12 µM | 52.6 µM | – | – | – |
